Results reported in patent US20060154954A1, “Combinations and use of selected pharmaceutically active compounds” (ALTANA PHARMA AG, priority 2003, published 2006).

System: gastric lesion
Experiment: Gastric lesions after pylorus ligation and oral acetylsalicylic acid in the rat (Shay rat, modified by Okabe)
Type: in vivo
Conditions: 4 hours after pylorus ligation and oral 100 mg/kg acetylsalicylic acid
[1] = 1.0 μmol/kg intraduodenally, read-out: Reduction of lesion index versus control in %

## COCCO[C@@H]1c2ccn3c(C)c(C)nc3c2N[C@H](c2ccccc2)[C@H]1O [Example 1, (7R,8R,9R)-8-hydroxy-7-(2-methoxyethoxy)-2,3-dimethyl-9-phenyl-7,8,9,10-tetrahydro-imi-dazo[1,2-h][1,7]naphthyridine]
3.0 μmol/kg intraduodenally
  Reduction of lesion index versus control in %: 100%

## CO[C@@H]1c2ccn3c(C)c(C)nc3c2N[C@H](c2ccccc2)[C@H]1O [Example 2, (7R, 8R, 9R)-2,3-dimethyl-8-hydroxy-7-methoxy-9-phenyl-7,8,9,10-tetrahydroimidazo[1,2-h][1,7]naphthyridine]
[1]
  inhibition in vivo at 1 µmol/kg: 100%

## CO[C@H]1c2ccn3c(C)c(C)nc3c2N[C@H](c2ccccc2)[C@H]1O [Example 3, (7S, 8R, 9R)-2,3-dimethyl-8-hydroxy-7-methoxy-9-phenyl-7,8,9,10-tetrahydroimidazo[1,2-h][1,7]naphthyridine]
10.0 μmol/kg intraduodenally, read-out: Reduction of lesion index versus control in %
  inhibition in vivo at 10 µmol/kg: 100%

## CCO[C@@H]1c2ccn3c(C)c(C)nc3c2N[C@H](c2ccccc2)[C@H]1O [Example 4, (7R, 8R, 9R)-2,3-dimethyl-7-ethoxy-8-hydroxy-9-phenyl-7,8,9,10-tetrahydroimidazo[1,2-h][1,7]naphthyridine]
[1]
  inhibition in vivo at 1 µmol/kg: 100%

## CCO[C@H]1c2ccn3c(C)c(C)nc3c2N[C@H](c2ccccc2)[C@H]1O [Example 5, (7S, 8R, 9R)-2,3-dimethyl-7-ethoxy-8-hydroxy-9-phenyl-7,8,9,10-tetrahydroimidazo[1,2-h][1,7]naphthyridine]
[1]
  inhibition in vivo at 1 µmol/kg: 100%

## COCCO[C@@H]1c2ccn3c(C)c(C)nc3c2N[C@H](c2ccccc2)[C@H]1O [Example 6, (7R, 8R, 9R)-2,3-dimethyl-8-hydroxy-7-(2-methoxyethoxy)-9-phenyl-7,8,9,10-tetrahydroimidazo[1,2-h][1,7]naphthyridine]
[1]
  inhibition in vivo at 1 µmol/kg: 100%

## COCCO[C@@H]1c2ccn3c(C)c(C)nc3c2N[C@H](c2ccccc2)[C@H]1OC(C)=O [Example 7, (7R,8R,9R)-8-acetoxy-7-(2-methoxyethoxy)-2,3-dimethyl-9-phenyl-7,8,9,10-tetrahydroimidazo[1,2-h][1,7]naphthyridine]
[1]
  inhibition in vivo at 1 µmol/kg: 100%

## COCCO[C@@H]1c2ccn3c(C)c(C)nc3c2N[C@H](c2ccccc2)[C@H]1OC(=O)c1ccccc1 [Example 8, (7R,8R,9R)-8-benzoyloxy-7-(2-methoxyethoxy)-2,3-dimethyl-9-phenyl-7,8,9,10-tetrahydroimidazo[1,2-h][1,7]naphthyridine]
[1]
  inhibition in vivo at 1 µmol/kg: 100%

## COCCO[C@@H]1c2ccn3c(C)c(C)nc3c2N[C@H](c2ccccc2)[C@H]1OC(=O)OC [Example 9, (7R,8R,9R)-8-methoxycarbonyloxy-7-(2-methoxyethoxy)-2,3-dimethyl-9-phenyl-7,8,9,10-tetrahydroimidazo[1,2-h][1,7]naphthyridine]
[1]
  inhibition in vivo at 1 µmol/kg: 100%

## COCCO[C@@H]1c2ccn3c(C)c(C)nc3c2N[C@H](c2ccccc2)[C@H]1OC(=O)CN(C)C [Example 10, (7R,8R,9R)-7-(2-methoxyethoxy)-2,3-dimethyl-8-(N,N-dimethylaminomethylcarbonyloxy)-9-phenyl-7,8,9,10-tetrahydroimidazo[1,2-h][1,7]naphthyridine]
[1]
  inhibition in vivo at 1 µmol/kg: 100%

## Cc1nc2c3c(ccn2c1C)[C@@H](O)[C@@](C)(O)[C@@H](c1ccccc1)N3 [Example 11, (7R,8S,9R)-2,3,8-trimethyl-7,8-dihydroxy-9-phenyl-7,8,9,10-tetrahydroimidazo[1,2-h][1,7]naphthyridine]
[1]
  inhibition in vivo at 1 µmol/kg: 100%

## Cc1nc2c3c(ccn2c1C)[C@@](C)(O)[C@H](O)[C@@H](c1ccccc1)N3 [Example 12, (7R,8R,9R)-2,3,7-trimethyl-7,8-dihydroxy-9-phenyl-7,8,9,10-tetrahydroimidazo[1,2-h][1,7]naphthyridine]
[1]
  inhibition in vivo at 1 µmol/kg: 100%

## COCCO[C@@H]1c2ccn3c(C)c(C)nc3c2O[C@H](c2ccccc2)[C@@H]1O [Example 13, (7R,8R,9R)-2,3-dimethyl-8-hydroxy-7-(2-methoxyethoxy)-9-phenyl-7H-8,9-dihydropyrano[2,3-c]imidazo[1,2-a]pyridine]
1.0 μmol/kg intraduodenally
  Reduction of lesion index versus control in %: 100%

## CCO[C@@H]1c2ccn3c(C)c(C)nc3c2O[C@H](c2ccccc2)[C@@H]1O [Example 14, (7R,8R,9R)-2,3-dimethyl-8-hydroxy-7-ethoxy-9-phenyl-7H-8,9-dihydropyrano[2,3-c]imidazo[1,2-a]pyridine]
1.0 μmol/kg intraduodenally
  Reduction of lesion index versus control in %: 100%

## COCCO[C@@H]1c2ccn3cc(C)nc3c2N[C@H](c2ccccc2)[C@H]1O [Example 15, (7R,8R,9R)-8-hydroxy-2-methyl-7-(2-methoxyethoxy)-9-phenyl-7,8,9,10-tetrahydroimidazo[1,2-h][1,7]naphthyridine]
6.0 μmol/kg intraduodenally, read-out: Reduction of lesion index versus control in %
  inhibition in vivo at 6 µmol/kg: 100%

## COCCO[C@@H]1c2ccn3c(Cl)c(C)nc3c2N[C@H](c2ccccc2)[C@H]1O [Example 16, (7R,8R,9R)-3-chloro-8-hydroxy-7-(2-methoxyethoxy)-2-methyl-9-phenyl-7.8.9.10-tetrahydroimidazo[1.2-h][1.7]naphthyridine]
6.0 μmol/kg intraduodenally
  Reduction of lesion index versus control in %: 100%

## COCCO[C@@H]1c2ccn3c(Cl)c(C)nc3c2O[C@H](c2ccccc2)[C@@H]1O [Example 17, (7R,8R,9R)-3-chloro-8-hydroxy-7-(2-methoxyethoxy)-2-methyl-9-phenyl-7H-8,9-dihydro-pyrano[2,3-c]imidazo[1,2-a]pyridine]
1.0 μmol/kg intraduodenally
  Reduction of lesion index versus control in %: 100%
